Measured values as given in patent US20060052600A1, “Amino-functional chalcones” (priority 2002, published 2006).
In brackets after ≈: the same amount, converted by molar mass. Like-named read-outs stand apart in the source and are kept apart here.

What was measured:
[1] = Pharmacokinetic studies; format: in vivo, mice
From the text: Samples of serum were taken at defined timepoints.
The supernatant was used for the analysis.

[2] = test system: Plasmodium berghei K173; assay: Multiple intra venous administration in Plasmodium berghei K173 infected NMRI female mice; format: in vivo; details: FIG. 7
Experimental: The doses stated were administered intra venously as solutions in a suitable vehicle.

[3] = test system: Plasmodium berghei K173; assay: Multiple oral administrations in Plasmodium berghei K173 infected NMRI female mice; format: in vivo; details: FIG. 8
[4] = test system: L. major promastigotes; assay: Leishmania promastigote assay; details: read-out: IC50, effect on L. major
[5] = test system: panel of anaerobic bacteria (Bacteroides fragilis, Clostridium perfringens, Clostridium difficele); format: cell-based; details: single concentration 100 μM
[6] = test system: DHODH (dihydroorotate dehydrogenase); assay: DHODH assay; format: biochemical; details: test concentration not given
[7] = test system: S. aureus ATCC29213; assay: Killing curve determination (time-kill curve); format: cell-based, Staphylococcus aureus; details: for bactericidal or bacteriostatic action (time-kill curve): CFU per ml at concentrations above the MIC; for MIC: S. aureus ATCC29213
[8] = test system: Eschericia coli ESS; assay: MIC determination in broth microdilution assay
[9] = test system: Plasmodium falciparum 3D7; assay: Plasmodium falciparum assay; format: cell-based; details: Table 2, read-out: IC50, activity against Plasmodium falciparum 3D7
[10] = Determination of metabolic stability (liver microsomes); format: in vitro ADME, rat; details: for Metabolic turn-over (rat) in vitro: 20 μM, 15 min, 37° C.
Experimental: Samples were incubated for 15 min at 37° C. and the reactions were terminated by addition of equal volumes of acetonitrile. Blank incubations were performed at the same concentration but without addition of microsomes. Both blank and microsome-containing samples were made in […] of three. […] The fraction of compound metabolised during the 15 min of incubation was determined by comparison of blank and microsome-containing samples using a Waters Alliance 2690 separation module and Waters 996 PDA-detector (Waters. […] This was followed by a 5 minutes linear gradient to initial conditions, which were maintained for 5 min. The flow rate was 0.20 ml/min and injection volume 10 μl.

[11] = test system: Staphylococcus intermedius #2357 (clinical isolate); assay: MIC determination in broth microdilution assay
[12] = Determination of solubility; format: physicochemical
Experimental: Solubility of the compounds was determined by preparing a saturated solution of compound in 0.3 M phosphate buffer (pH 7.4±0.3) in a brown glass tube. The suspensions were rotated slowly for 24 hours. Aliquots were centrifuged for 10 minutes at 14.000 rpm and supernatants were diluted in 40% (v/v) acetonitrile in water prior to HPLC analysis. Concentrations of analytes were quantified against a standard curve and used as term of solubility.
The HPLC-UV method used for the assessment of solubility is the same as used in the in vitro metabolism assay.

[13] = test system: Enterococcus faecium #17501 (vancomycin-resistant clinical isolate); assay: MIC determination in broth microdilution assay
[14] = test system: Enterococcus faecalis ATCC29212; assay: MIC determination in broth microdilution assay
[15] = test system: Staphylococcus aureus ATCC29213; assay: MIC determination in broth microdilution assay
[16] = test system: Staphylococcus aureus ATCC33591 (resistant to methicillin); assay: MIC determination in broth microdilution assay
[17] = test system: panel of non-fastidious bacteria (Gram-positive pathogens and Eschericia coli); assay: Activity against non-fastidious bacteria (panel, results in words)
[18] = test system: Streptococcus pneumoniae #998 (clinical isolate); assay: MIC determination in broth microdilution assay
[19] = test system: Eschericia coli ATCC25922; assay: MIC determination in broth microdilution assay

O=C(/C=C/c1ccc(Cl)cc1Cl)c1ccccc1CN1CCNCC1 [A048, (E)-3-(2,4-Dichloro-phenyl)-1-(2-piperazin-1-ylmethyl-phenyl)-propenone]
bioavailability ([1]; mice): 34%

CN(C)Cc1ccccc1C(=O)/C=C/c1ccc(Cl)cc1Cl [A027, (E)-3-(2,4-Dichloro-phenyl)-1-(2-dimethylaminomethyl-phenyl)-propenone]
parasitaemia, multiple intra venous administrations [2]: significant decrease in the parasitaemia | parasitaemia, multiple oral administrations [3]: significant decrease in the parasitaemia

C=CC(C)(C)c1ccc(OC)c(/C=C/C(=O)c2ccccc2CN(C)C)c1 [A034, (E)-3-[5-(1,1-Dimethyl-allyl)-2-methoxy-phenyl]-1-(2-dimethylaminomethyl-phenyl)-propenone]
IC50 [4]: 900 nM | activity against anaerobic bacteria [5]: activity against all microorganisms within the test panel

CN(C)CCN(C)Cc1ccccc1C(=O)/C=C/c1ccc(Cl)cc1Cl [A038, (E)-3-(2,4-Dichloro-phenyl)-1-(2-{[(2-dimethylamino-ethyl)-methyl-amino]-methyl}-phenyl)-propenone]
IC50 [4]: 800 nM | Inhibition of DHODH [6]: 22% | activity against anaerobic bacteria [5]: activity against all microorganisms within the test panel

CCN(CC)Cc1cccc(C(=O)/C=C/c2ccc(Cl)cc2Cl)c1 [A063, (E)-3-(2,4-Dichloro-phenyl)-1-(3-diethylaminomethyl-phenyl)-propenone]
IC50 [4]: 900 nM | activity against anaerobic bacteria [5]: activity against all microorganisms within the test panel

CCCCN(CCCC)c1ccc(/C=C/C(=O)c2ccccc2CN2CCN(C)CC2)cc1 [A031, (E)-3-(4-Dibutylamino-phenyl)-1-[2-(4-methyl-piperazin-1-ylmethyl)-phenyl]-propenone]
bactericidal or bacteriostatic action (time-kill curve) [7]: bactericidal | MIC [7]: 9.4 µM (≈ 4.21 µg/mL) | activity against the ESS strain of E. coli [8]: considerable activity

CN(Cc1ccccc1C(=O)/C=C/c1ccc(Cl)cc1Cl)C(C)(C)C [A035, (E)-1-{2-[(tert-Butyl-methyl-amino)-methyl]-phenyl}-3-(2,4-dichloro-phenyl)-propenone]
IC50 [9]: 0.9 µM | Inhibition of DHODH [6]: 26%

CN1CCN(Cc2ccccc2C(=O)/C=C/c2ccc(Cl)cc2Cl)CC1 [A026, (E)-3-(2,4-Dichloro-phenyl)-1-[2-(4-methyl-piperazin-1-ylmethyl)-phenyl]-propenone]
activity against anaerobic bacteria [5]: activity against all microorganisms within the test panel

C=CC(C)(C)c1cc(/C=C/C(=O)c2ccc(O)cc2)c(OC)cc1O [LicA, Licochalcone A, reference compound]
IC50 [4]: 4600 nM | metabolic turn-over in vitro [10]: 100% | Metabolic turn-over (rat) in vitro [10]: 100% | MIC, C: Staphylococcus intermedius #2357 [11]: 37.5 µM (≈ 12.7 µg/mL) | aqueous solubility ([12]; pH 7.4): approximately 0.01 mg/ml | IC50 [9]: 6.4 µM | MIC, E: Enterococcus faecium #17501 [13]: 37.5 µM (≈ 12.7 µg/mL) | MIC, H: Eschericia coli ESS [8]: 300.0 µM (≈ 102 µg/mL) | Inhibition of DHODH [6]: 25% | MIC, D: Enterococcus faecalis ATCC29212 [14]: 37.5 µM (≈ 12.7 µg/mL) | MIC, A: Staphylococcus aureus ATCC29213 [15]: 37.5 µM (≈ 12.7 µg/mL) | MIC, B: Staphylococcus aureus ATCC33591 [16]: 37.5 µM (≈ 12.7 µg/mL) | t½ in vivo ([1]; in vivo, species not given): 10 min | activity against Gram-negative bacterium Eschericia coli [17]: only modest or no activity | activity against common pathogenic Gram-positive non-fastidious bacteria ([17]; also against antibiotic resistant bacteria): moderate bactericidal activity | MIC, F: Streptococcus pneumoniae #998 [18]: 75.0 µM (≈ 25.4 µg/mL)

COc1ccc(-c2ccccc2)cc1/C=C/C(=O)c1cccc(CN(C)C)c1 [A100, (E)-1-(3-Dimethylaminomethyl-phenyl)-3-(4-methoxy-biphenyl-3-yl)-propenone]
IC50 [4]: 200 nM

CN(C)CCCNCc1cccc(C(=O)/C=C/c2ccc(Cl)cc2Cl)c1 [A022, (E)-3-(2,4-Dichloro-phenyl)-1-{3-[(3-dimethylamino-propylamino)-methyl]-phenyl}-propenone]
MIC, C: Staphylococcus intermedius #2357 [11]: 37.5 µM (≈ 14.7 µg/mL) | MIC, E: Enterococcus faecium #17501 [13]: 18.8 µM (≈ 7.36 µg/mL) | MIC, H: Eschericia coli ESS [8]: 18.8 µM (≈ 7.36 µg/mL) | Inhibition of DHODH [6]: 28% | MIC, D: Enterococcus faecalis ATCC29212 [14]: 18.8 µM (≈ 7.36 µg/mL) | MIC, A: Staphylococcus aureus ATCC29213 [15]: 37.5 µM (≈ 14.7 µg/mL) | MIC, B: Staphylococcus aureus ATCC33591 [16]: 37.5 µM (≈ 14.7 µg/mL) | MIC, G: Eschericia coli ATCC25922 [19]: 18.8 µM (≈ 7.36 µg/mL) | MIC, F: Streptococcus pneumoniae #998 [18]: 18.8 µM (≈ 7.36 µg/mL)

COc1ccc(-c2ccccc2)cc1/C=C/C(=O)c1ccc(CCN(C)C)cc1 [A117, (E)-1-[4-(2-Dimethylamino-ethyl)-phenyl]-3-(4-methoxy-biphenyl-3-yl)-propenone]
MIC, C: Staphylococcus intermedius #2357 [11]: 9.4 µM (≈ 3.62 µg/mL) | MIC, E: Enterococcus faecium #17501 [13]: 37.5 µM (≈ 14.5 µg/mL) | MIC, H: Eschericia coli ESS [8]: 9.4 µM (≈ 3.62 µg/mL) | MIC, D: Enterococcus faecalis ATCC29212 [14]: 37.5 µM (≈ 14.5 µg/mL) | MIC, A: Staphylococcus aureus ATCC29213 [15]: 9.4 µM (≈ 3.62 µg/mL) | MIC, B: Staphylococcus aureus ATCC33591 [16]: 9.4 µM (≈ 3.62 µg/mL) | MIC, G: Eschericia coli ATCC25922 [19]: 150 µM (≈ 57.8 µg/mL) | MIC, F: Streptococcus pneumoniae #998 [18]: 37.5 µM (≈ 14.5 µg/mL)

CN(C)Cc1ccccc1C(=O)/C=C/c1cccc(Nc2cccnc2)c1 [A090, (E)-1-(2-Dimethylaminomethyl-phenyl)-3-[3-(pyridin-3-ylamino)-phenyl]-propenone]
activity against anaerobic bacteria [5]: activity against all microorganisms within the test panel

COc1ccc(C(=O)/C=C/c2ccccc2)cc1 [4′MC, 4′methoxy chalcone, reference compound]
IC50 ([4]; Leishmania major): 5600 nM | solubility at 24 h ([12]; 0.3 M phosphate buffer, pH 7.4, aqueous buffer, thermodynamic from solid): < 50 µg/mL | IC50 ([9]; Plasmodium falciparum, 3D7): 40 µM | Inhibition of DHODH [6]: 7% | antibacterial effect [17]: no antibacterial effect at all

CN(C)Cc1cccc(/C=C/C(=O)c2ccccc2CN(C)C)c1 [A066, (E)-3-(3-Dimethylaminomethyl-phenyl)-1-(2-dimethylaminomethyl-phenyl)-propenone]
Solubility in aqueous buffer at pH 7.4 ([12]; 0.3 M phosphate buffer, 24 hours): 7.4 mg/ml | IC50 [9]: 0.9 µM

CCCCN(CCCC)c1ccc(/C=C/C(=O)c2cccc(CN(C)C)c2)cc1 [A019, (E)-3-(4-Dibutylamino-phenyl)-1-(3-dimethylaminomethyl-phenyl)-propenone]
bactericidal or bacteriostatic action (time-kill curve) [7]: bactericidal | MIC [7]: 9.4 µM (≈ 3.69 µg/mL) | dependence of the bactericidal action ([7]; time-kill curve): primarily dependent on incubation time | Metabolic turn-over (rat) in vitro [10]: 5% | MIC, C: Staphylococcus intermedius #2357 [11]: 9.4 µM (≈ 3.69 µg/mL) | MIC, E: Enterococcus faecium #17501 [13]: 9.4 µM (≈ 3.69 µg/mL) | MIC, H: Eschericia coli ESS [8]: 18.8 µM (≈ 7.38 µg/mL) | activity against the ESS strain of E. coli [8]: considerable activity | MIC, D: Enterococcus faecalis ATCC29212 [14]: 9.4 µM (≈ 3.69 µg/mL) | MIC, A: Staphylococcus aureus ATCC29213 [15]: 9.4 µM (≈ 3.69 µg/mL) | MIC, B: Staphylococcus aureus ATCC33591 [16]: 9.4 µM (≈ 3.69 µg/mL) | potency against Gram-positive pathogens in comparison with Licochalcone A ([17]; Gram-positive pathogens): increased potency | MIC, F: Streptococcus pneumoniae #998 [18]: 18.8 µM (≈ 7.38 µg/mL)
